Data reported in PubChem BioAssay (NCI).
“And” between values parts separate entries of the source, which are not always exact repeats. Identical values can stand only once.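 Briefly, cells in 96-well plates were exposed to five compound concentrations for 48 h, and endpoints were estimated by linear interpolation. GI50 = concentration required for 50% inhibition of growth. TGI: concentration producing complete growth inhibition.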

How the values were obtained:
Assay in all cases: NCI tumour cell line growth inhibition, 48 h; in the data active = GI50 below about 0.43 µM; inactive = the rest
786-0 renal = tested on: 786-0 renal
A498 renal = tested on: A498 renal
A549 NSCLC = tested on: A549 NSCLC
ACHN renal = tested on: ACHN renal
BT-549 breast = tested on: BT-549 breast
CAKI-1 renal = tested on: CAKI-1 renal
DMS 114 small cell lung = tested on: DMS 114 small cell lung
DMS 273 small cell lung = tested on: DMS 273 small cell lung
DU-145 prostate = tested on: DU-145 prostate
HCC-2998 colon = tested on: HCC-2998 colon
HT29 colon = tested on: HT29 colon
K-562 leukemia = tested on: K-562 leukemia
MCF7 breast = tested on: MCF7 breast
MOLT-4 leukemia = tested on: MOLT-4 leukemia
NCI-H23 lung = tested on: NCI-H23 lung
NCI-H460 lung = tested on: NCI-H460 lung
OVCAR-5 ovarian = tested on: OVCAR-5 ovarian
OVCAR-8 ovarian = tested on: OVCAR-8 ovarian
P388 leukemia = tested on: P388 leukemia
P388/ADR leukemia = tested on: P388/ADR leukemia
SF-539 CNS = tested on: SF-539 CNS
SK-MEL-28 melanoma = tested on: SK-MEL-28 melanoma
SN12K1 renal = tested on: SN12K1 renal
SNB-19 CNS = tested on: SNB-19 CNS
SR leukemia = tested on: SR leukemia
TK-10 renal = tested on: TK-10 renal
UO-31 renal = tested on: UO-31 renal
CCRF-CEM leukemia = tested on: CCRF-CEM leukemia
COLO 205 colon = tested on: COLO 205 colon
DLD-1 colon = tested on: DLD-1 colon
EKVX NSCLC = tested on: EKVX NSCLC
HCT-116 colon = tested on: HCT-116 colon
HCT-15 colon = tested on: HCT-15 colon
HL-60(TB) leukemia = tested on: HL-60(TB) leukemia
HOP-18 NSCLC = tested on: HOP-18 NSCLC
HOP-62 NSCLC = tested on: HOP-62 NSCLC
HOP-92 NSCLC = tested on: HOP-92 NSCLC
IGROV1 ovarian = tested on: IGROV1 ovarian
KM12 colon = tested on: KM12 colon
KM20L2 colon = tested on: KM20L2 colon
LOX IMVI melanoma = tested on: LOX IMVI melanoma
LXFL 529 NSCLC = tested on: LXFL 529 NSCLC
M14 melanoma = tested on: M14 melanoma
M19-MEL melanoma = tested on: M19-MEL melanoma
MALME-3M melanoma = tested on: MALME-3M melanoma
NCI-H226 lung = tested on: NCI-H226 lung
NCI-H522 lung = tested on: NCI-H522 lung
OVCAR-3 ovarian = tested on: OVCAR-3 ovarian
OVCAR-4 ovarian = tested on: OVCAR-4 ovarian
RPMI-8226 leukemia = tested on: RPMI-8226 leukemia
RXF 393 renal = tested on: RXF 393 renal
RXF-631 renal = tested on: RXF-631 renal
SF-268 CNS = tested on: SF-268 CNS
SF-295 CNS = tested on: SF-295 CNS
SK-MEL-2 melanoma = tested on: SK-MEL-2 melanoma
SK-MEL-5 melanoma = tested on: SK-MEL-5 melanoma
SK-OV-3 ovarian = tested on: SK-OV-3 ovarian
SN12C renal = tested on: SN12C renal
SNB-75 CNS = tested on: SNB-75 CNS
SW-620 colon = tested on: SW-620 colon
U251 CNS = tested on: U251 CNS
UACC-257 melanoma = tested on: UACC-257 melanoma
UACC-62 melanoma = tested on: UACC-62 melanoma
XF 498 CNS = tested on: XF 498 CNS
SNB-78 CNS = tested on: SNB-78 CNS

O=c1[nH]c(=O)n(C2CC(O)C(CO)O2)cc1F (stereo not given)
> 100 µM and 1910 µM and > 2500 µM: TGI (A549 NSCLC)
> 100 µM and 526 µM: TGI (NCI-H460 lung)
> 100 µM and 750 µM: TGI (SR leukemia)
> 100 µM and 2320 µM and > 2500 µM: TGI (OVCAR-8 ovarian)
808 µM: TGI (DMS 114 small cell lung)
inactive: GI50 (ACHN renal) > 92.6 µM | GI50 (HCC-2998 colon) 33.6 µM | GI50 (NCI-H460 lung) > 65.3 µM | GI50 (SF-539 CNS) > 79.3 µM
> 100 µM and 84.7 µM: TGI (A498 renal)
> 100 µM and 1790 µM and > 2500 µM: TGI (786-0 renal)
> 100 µM and 1730 µM and > 2500 µM: TGI (SK-MEL-28 melanoma)
> 100 µM and 2400 µM and > 2500 µM: TGI (HT29 colon)
> 100 µM and 239 µM: TGI (NCI-H23 lung)
> 100 µM and 1650 µM and > 2500 µM: TGI (TK-10 renal)
> 100 µM and 2330 µM and > 2500 µM: TGI (OVCAR-5 ovarian)
> 100 µM and 1100 µM and > 2500 µM: TGI (CAKI-1 renal)
179 µM: TGI (P388 leukemia)
> 100 µM and > 1570 µM and 1820 µM: TGI (DU-145 prostate)
415 µM: TGI (DMS 273 small cell lung)
> 100 µM and 1930 µM and > 2500 µM: TGI (MOLT-4 leukemia)
74.9 µM: TGI (P388/ADR leukemia)
1250 µM: TGI (SN12K1 renal)
> 100 µM and 1030 µM and > 869 µM: TGI (BT-549 breast)
> 100 µM and 1940 µM and > 2500 µM: TGI (MCF7 breast)
> 100 µM and 1080 µM: TGI (K-562 leukemia)
> 100 µM and 1670 µM: TGI (ACHN renal)
> 100 µM and 130 µM: TGI (UO-31 renal)
> 100 µM and 1750 µM and > 2500 µM: TGI (SNB-19 CNS)

CC(C)C1COC(C(C)(C)C2=N[C@@H](C(C)C)CO2)=N1 (stereo not given in full)
> 100 µM: TGI (786-0 renal) | TGI (A549 NSCLC) | TGI (ACHN renal) | TGI (CCRF-CEM leukemia) | TGI (COLO 205 colon) | TGI (DLD-1 colon) | TGI (DMS 114 small cell lung) | TGI (DMS 273 small cell lung) | TGI (EKVX NSCLC) | TGI (HCC-2998 colon) | TGI (HCT-116 colon) | TGI (HCT-15 colon) | TGI (HL-60(TB) leukemia) | TGI (HOP-18 NSCLC) | TGI (HOP-62 NSCLC) | TGI (HOP-92 NSCLC) | TGI (HT29 colon) | TGI (IGROV1 ovarian) | TGI (K-562 leukemia) | TGI (KM12 colon) | TGI (KM20L2 colon) | TGI (LOX IMVI melanoma) | TGI (LXFL 529 NSCLC) | TGI (M14 melanoma) | TGI (M19-MEL melanoma) | TGI (MALME-3M melanoma) | TGI (MOLT-4 leukemia) | TGI (NCI-H226 lung) | TGI (NCI-H23 lung) | TGI (NCI-H460 lung) | TGI (NCI-H522 lung) | TGI (OVCAR-3 ovarian) | TGI (OVCAR-4 ovarian) | TGI (OVCAR-5 ovarian) | TGI (OVCAR-8 ovarian) | TGI (RPMI-8226 leukemia) | TGI (RXF 393 renal) | TGI (RXF-631 renal) | TGI (SF-268 CNS) | TGI (SF-295 CNS) | TGI (SF-539 CNS) | TGI (SK-MEL-2 melanoma) | TGI (SK-MEL-28 melanoma) | TGI (SK-MEL-5 melanoma) | TGI (SK-OV-3 ovarian) | TGI (SN12C renal) | TGI (SNB-19 CNS) | TGI (SNB-75 CNS) | TGI (SR leukemia) | TGI (SW-620 colon) | TGI (TK-10 renal) | TGI (U251 CNS) | TGI (UACC-257 melanoma) | TGI (UACC-62 melanoma) | TGI (UO-31 renal) | TGI (XF 498 CNS)

C#CCOCn1cnc2c(N)ncnc21
> 100 µM: TGI (786-0 renal) | TGI (A498 renal) | TGI (A549 NSCLC) | TGI (ACHN renal) | TGI (CAKI-1 renal) | TGI (CCRF-CEM leukemia) | TGI (COLO 205 colon) | TGI (DLD-1 colon) | TGI (DMS 114 small cell lung) | TGI (DMS 273 small cell lung) | TGI (EKVX NSCLC) | TGI (HCC-2998 colon) | TGI (HCT-116 colon) | TGI (HOP-18 NSCLC) | TGI (HOP-62 NSCLC) | TGI (HOP-92 NSCLC) | TGI (HT29 colon) | TGI (IGROV1 ovarian) | TGI (K-562 leukemia) | TGI (KM12 colon) | TGI (KM20L2 colon) | TGI (LOX IMVI melanoma) | TGI (LXFL 529 NSCLC) | TGI (M14 melanoma) | TGI (M19-MEL melanoma) | TGI (MALME-3M melanoma) | TGI (MOLT-4 leukemia) | TGI (NCI-H226 lung) | TGI (NCI-H23 lung) | TGI (NCI-H460 lung) | TGI (NCI-H522 lung) | TGI (OVCAR-3 ovarian) | TGI (OVCAR-4 ovarian) | TGI (OVCAR-5 ovarian) | TGI (OVCAR-8 ovarian) | TGI (RPMI-8226 leukemia) | TGI (RXF-631 renal) | TGI (SF-268 CNS) | TGI (SF-295 CNS) | TGI (SF-539 CNS) | TGI (SK-MEL-2 melanoma) | TGI (SK-MEL-28 melanoma) | TGI (SK-MEL-5 melanoma) | TGI (SK-OV-3 ovarian) | TGI (SN12C renal) | TGI (SNB-19 CNS) | TGI (SNB-75 CNS) | TGI (SNB-78 CNS) | TGI (SR leukemia) | TGI (SW-620 colon) | TGI (TK-10 renal) | TGI (U251 CNS) | TGI (UACC-257 melanoma) | TGI (UACC-62 melanoma) | TGI (UO-31 renal) | TGI (XF 498 CNS)

CC1=C(C(=O)NCc2ccccc2)C(c2ccc(N(C)C)cc2)C(C(=O)NCc2ccccc2)=C(C)N1
80.3 µM: TGI (RXF 393 renal)
> 100 µM: TGI (786-0 renal) | TGI (A498 renal) | TGI (A549 NSCLC) | TGI (ACHN renal) | TGI (CAKI-1 renal) | TGI (CCRF-CEM leukemia) | TGI (COLO 205 colon) | TGI (DLD-1 colon) | TGI (DMS 114 small cell lung) | TGI (DMS 273 small cell lung) | TGI (EKVX NSCLC) | TGI (HCC-2998 colon) | TGI (HCT-116 colon) | TGI (HL-60(TB) leukemia) | TGI (HOP-62 NSCLC) | TGI (HOP-92 NSCLC) | TGI (HT29 colon) | TGI (IGROV1 ovarian) | TGI (K-562 leukemia) | TGI (KM12 colon) | TGI (KM20L2 colon) | TGI (LXFL 529 NSCLC) | TGI (M14 melanoma) | TGI (M19-MEL melanoma) | TGI (MALME-3M melanoma) | TGI (MOLT-4 leukemia) | TGI (NCI-H226 lung) | TGI (NCI-H23 lung) | TGI (NCI-H460 lung) | TGI (NCI-H522 lung) | TGI (OVCAR-3 ovarian) | TGI (OVCAR-4 ovarian) | TGI (OVCAR-5 ovarian) | TGI (OVCAR-8 ovarian) | TGI (RPMI-8226 leukemia) | TGI (RXF-631 renal) | TGI (SF-295 CNS) | TGI (SF-539 CNS) | TGI (SK-MEL-2 melanoma) | TGI (SK-MEL-28 melanoma) | TGI (SK-MEL-5 melanoma) | TGI (SK-OV-3 ovarian) | TGI (SN12C renal) | TGI (SNB-19 CNS) | TGI (SNB-75 CNS) | TGI (SNB-78 CNS) | TGI (SW-620 colon) | TGI (TK-10 renal) | TGI (U251 CNS) | TGI (UACC-257 melanoma) | TGI (UACC-62 melanoma) | TGI (UO-31 renal) | TGI (XF 498 CNS)
